Legend:
Fusarium culmorum [1] = experiment: microbe, parasite or virus in culture; type: cell-based; details: read-out: control of Fusarium culmorum
[2] = system: Glomerella lagenarium (Colletotrichum lagenarium); experiment: Glomerella lagenarium (Colletotrichum lagenarium)/Liquid Culture (Anthracnose); type: cell-based; details: Colletotrichum orbiculare; 200 ppm; liquid culture, compared to untreated control, 3-4 days after application; read-out: control of Glomerella lagenarium
[3] = system: Botryotinia fuckeliana (Botrytis cinerea); experiment: Botryotinia fuckeliana (Botrytis cinerea)/Liquid Culture (Gray Mould); type: cell-based; details: 200 ppm, liquid culture, compared to untreated control, 3-4 days after application, read-out: control of Botryotinia fuckeliana
[4] = system: Magnaporthe grisea (Pyricularia oryzae); experiment: microbe, parasite or virus in culture; type: cell-based; details: read-out: control of Magnaporthe grisea
Fusarium culmorum [5] = experiment: whole plant or invertebrate; type: in vivo; details: in Triticum aestivum, read-out: control of Fusarium culmorum
[6] = system: Monographella nivalis (Microdochium nivale); experiment: Monographella nivalis (Microdochium nivale)/Liquid Culture (Foot Rot Cereals); type: cell-based; details: 200 ppm, liquid culture, compared to untreated control, 4-5 days after application, read-out: control of Monographella nivalis

SMILES | inhibition of growth at 200 ppm (Fusarium culmorum [1]) [%] | melting point [°C] | inhibition of growth at 200 ppm [2] [%] | inhibition of growth at 200 ppm [3] [%] | inhibition of growth at 200 ppm [4] [%] | pest or weed control at 200 ppm (Fusarium culmorum [5]) [%] | inhibition of growth at 200 ppm [6] [%]
C=C(Cl)CC(Cc1ccccc1)C(=O)Nc1cc2cccc(F)c2nc1C (stereo not shown) [Compound E-4, 2-benzyl-4-chloro-N-(8-fluoro-2-methyl-3-quinolyl)pent-4-enamide] | ≥ 80 | 96 to 99 | ≥ 80 | ≥ 80 |  |  | 
Cc1c(NC(=O)C(Cc2ccccc2)CC2(C)CC2)cnc2c(F)cccc12 (stereo not shown) |  | 144 to 146 |  |  |  |  | 
Cc1nc2c(F)cccc2cc1NC(=O)C(C)(Cc1ccccc1)OC(C)C (stereo not shown) [Compound E-39, N-(8-fluoro-2-methyl-3-quinolyl)-2-isopropoxy-2-methyl-3-phenyl-propanamide] | ≥ 80 |  | ≥ 80 | ≥ 80 | ≥ 80 | ≥ 80 | ≥ 80
CN(C(=O)C(C)(Cc1ccccc1)CC(F)(F)F)c1cnc2c(F)cccc2c1 (stereo not shown) [Compound E-42, 2-benzyl-4,4,4-trifluoro-N-(8-fluoro-3-quinolyl)-N,2-dimethyl-butanamide] | ≥ 80 | 137 to 139 | ≥ 80 | ≥ 80 | ≥ 80 |  | 
C[C@@](Cc1ccccc1)(CC(F)(F)F)C(=O)Nc1cnc2c(F)cccc2c1 (single isomer, unassigned) [Compound F-24] | ≥ 80 |  | ≥ 80 | ≥ 80 | ≥ 80 | ≥ 80 | ≥ 80
CC(C=C(F)F)(Cc1ccccc1)C(=O)Nc1cnc2c(F)cccc2c1 (stereo not shown) [Compound E-57, 2-benzyl-4,4-difluoro-N-(8-fluoro-3-quinolyl)-2-methyl-but-3-enamide] | ≥ 80 |  | ≥ 80 | ≥ 80 | ≥ 80 | ≥ 80 | ≥ 80
C=C(C)CC(C)(Cc1ccccc1)C(=O)Nc1cnc2ccccc2c1 (stereo not shown) [Compound E-64, 2-benzyl-2,4-dimethyl-N-(3-quinolyl)pent-4-enamide] | ≥ 80 |  | ≥ 80 | ≥ 80 | ≥ 80 | ≥ 80 | ≥ 80
C=C(C)CC(Cc1ccccc1)C(=O)Nc1cnc2c(F)cccc2c1 (stereo not shown) [Compound E-94, 2-benzyl-N-(8-fluoro-3-quinolyl)-4-methyl-pent-4-enamide] | ≥ 80 | 170 to 172 | ≥ 80 | ≥ 80 |  |  | ≥ 80
C=C(C)CC(Cc1ccccc1)C(=O)Nc1cc2cccc(F)c2nc1C (stereo not shown) [Compound E-92, 2-benzyl-N-(8-fluoro-2-methyl-3-quinolyl)-4-methyl-pent-4-enamide] | ≥ 80 | 97 to 99 | ≥ 80 | ≥ 80 |  | ≥ 80 | 
CC(C)CC(C)(Cc1ccccc1)C(=O)Nc1cnc2c(Cl)cccc2c1 (stereo not shown) [Compound E-9, 2-benzyl-N-(8-chloro-3-quinolyl)-2,4-dimethyl-pentanamide] | ≥ 80 | 163 to 165 | ≥ 80 | ≥ 80 | ≥ 80 |  | ≥ 80
C/C=C(\C)CC(C)(Cc1ccccc1)C(=O)Nc1cnc2c(F)cccc2c1 (stereo not shown) [Compound E-32, (E)-2-benzyl-N-(8-fluoro-3-quinolyl)-2,4-dimethyl-hex-4-enamide] | ≥ 80 |  | ≥ 80 | ≥ 80 | ≥ 80 | ≥ 80 | ≥ 80
CC(Cc1ccccc1)C(=O)Nc1cnc2c(F)cccc2c1 (stereo not shown) [Compound E-31, N-(8-fluoro-3-quinolyl)-2-methyl-3-phenyl-propanamide] | ≥ 80 | 188 to 190 | ≥ 80 | ≥ 80 | ≥ 80 |  | 
Cc1nc2c(F)cccc2cc1NC(=O)C(Cc1ccccc1)CC1(C)CC1 (stereo not shown) |  | 162 to 163 |  |  |  |  | 
CC(Cc1ccccc1)(CC(F)F)C(=O)Nc1cnc2c(F)cccc2c1 (stereo not shown) [Compound E-55, 2-benzyl-4,4-difluoro-N-(8-fluoro-3-quinolyl)-2-methyl-butanamide] | ≥ 80 |  | ≥ 80 | ≥ 80 | ≥ 80 | ≥ 80 | ≥ 80
CC(Cc1ccccc1)(CC(F)(F)F)C(=O)Nc1cnc2cccc(F)c2c1 (stereo not shown) [Compound E-49, 2-benzyl-4,4,4-trifluoro-N-(5-fluoro-3-quinolyl)-2-methyl-butanamide] | ≥ 80 | 140 to 142 |  | ≥ 80 | ≥ 80 |  | 
COC(C)(Cc1ccccc1)C(=O)Nc1cc2cccc(F)c2nc1C (stereo not shown) [Compound E-41, N-(8-fluoro-2-methyl-3-quinolyl)-2-methoxy-2-methyl-3-phenyl-propanamide] | ≥ 80 |  | ≥ 80 | ≥ 80 | ≥ 80 | ≥ 80 | ≥ 80
C=C(C)C[C@](C)(Cc1ccccc1)C(=O)Nc1cnc2c(F)cccc2c1 [Compound F-22, (2R)-2-benzyl-N-(8-fluoro-3-quinolyl)-2,4-dimethyl-pent-4-enamide] | ≥ 80 | 133 to 135 | ≥ 80 | ≥ 80 |  |  | ≥ 80
CC(Cc1ccccc1)(CC(F)(F)F)C(=O)Nc1cnc2cc(F)ccc2c1 (stereo not shown) [Compound E-52, 2-benzyl-4,4,4-trifluoro-N-(7-fluoro-3-quinolyl)-2-methyl-butanamide] | ≥ 80 | 180 to 182 | ≥ 80 | ≥ 80 | ≥ 80 |  | ≥ 80
CC1(CC(Cc2ccccc2)C(=O)Nc2cnc3c(F)cccc3c2)CC1 (stereo not shown) |  | 135 to 136 |  |  |  |  | 
CC(C)C[C@](C)(Cc1ccccc1)C(=O)Nc1cnc2c(F)cccc2c1 [Compound F-19, (2R)-2-benzyl-N-(8-fluoro-3-quinolyl)-2,4-dimethyl-pentanamide] | ≥ 80 |  | ≥ 80 | ≥ 80 |  | ≥ 80 | 
C=C(C(Cc1ccccc1)C(=O)Nc1cnc2c(F)cccc2c1)C(F)(F)F (stereo not shown) [Compound E-24, 2-benzyl-N-(8-fluoro-3-quinolyl)-3-(trifluoromethyl)but-3-enamide] | ≥ 80 |  | ≥ 80 | ≥ 80 | ≥ 80 |  | ≥ 80
COCN(C(=O)C(C)(Cc1ccccc1)CC(F)(F)F)c1cnc2c(F)cccc2c1 (stereo not shown) [Compound E-33, 2-benzyl-4,4,4-trifluoro-N-(8-fluoro-3-quinolyl)-N-(methoxymethyl)-2-methyl-butanamide] | ≥ 80 | 108 to 110 | ≥ 80 | ≥ 80 | ≥ 80 |  | 
Cc1nc2c(F)cccc2cc1NC(=O)C(C)(Cc1ccccc1)CC(C)C (stereo not shown) [Compound E-86, 2-benzyl-N-(8-fluoro-2-methyl-3-quinolyl)-2,4-dimethyl-pentanamide] | ≥ 80 |  | ≥ 80 | ≥ 80 |  | ≥ 80 | ≥ 80
CC(C)CC(Cc1ccccc1)C(=O)Nc1cnc2c(F)cccc2c1 (stereo not shown) [Compound E-35, 2-benzyl-N-(8-fluoro-3-quinolyl)-4-methyl-pentanamide] | ≥ 80 |  | ≥ 80 | ≥ 80 | ≥ 80 | ≥ 80 | 
CC(C)OC(C)(Cc1ccccc1)C(=O)Nc1cnc2c(F)cccc2c1 (stereo not shown) [Compound E-40, N-(8-fluoro-3-quinolyl)-2-isopropoxy-2-methyl-3-phenyl-propanamide] | ≥ 80 |  | ≥ 80 | ≥ 80 | ≥ 80 | ≥ 80 | ≥ 80
C=C(CC)CC(C)(Cc1ccccc1)C(=O)Nc1cnc2c(F)cccc2c1 (stereo not shown) [Compound E-54, 2-benzyl-N-(8-fluoro-3-quinolyl)-2-methyl-4-methylene-hexanamide] | ≥ 80 | 118 to 120 | ≥ 80 | ≥ 80 | ≥ 80 |  | 
CCC(C)CC(C)(Cc1ccccc1)C(=O)Nc1cnc2c(F)cccc2c1 (stereo not shown) [Compound E-36, 2-benzyl-N-(8-fluoro-3-quinolyl)-2,4-dimethyl-hexanamide] | ≥ 80 |  | ≥ 80 | ≥ 80 | ≥ 80 |  | ≥ 80

Reference: patent US10952436B2, “Microbiocidal quinoline (thio)carboxamide derivatives” (SYNGENTA PARTICIPATIONS AG, priority 2017, dated 2021)
